The text below walks through data of US8420676B2, “Oxazolidinone derivatives” (Dong-A Pharmaceuticals Co. Ltd., priority 2003, dated 2013).

In brackets after ≈: the same amount, converted by molar mass.

The subject of one data set is ICR mice. The data set is described as follows: Test of acute toxicity by oral administration to mouse. It counts as in vivo. The settings on record: 1% hydroxypropylmethylcellulose, observed 2 weeks. Here is the method: To test acute toxicity of the compounds of the present invention, the following experiment was carried out.
A mixture of 1% hydroxypropylmethylcellulose and 200 mg of one selected from the group consisting of the compounds 10, 12, 16, 17, 20, 22, 24 and 27 was administrated to 5 ICR mice (5-Week old males, 20 g±2 g by weight). And then lethality for 2 weeks, weight, symptoms etc. was watched to determine Minimum Lethal Dose (MLD, mg/kg). […]

Data set [1] can be described thus: Assay for solubility in distilled water (turbidity by naked eye). The settings on record: average of three runs; for solubility at 2 min: thermodynamic from solid. It counts as physicochemical. Here is the method: The derivatives of the present invention were added to 200 μl of distilled water and then the solution was stirred for 2 minutes. The turbidity of the solution was watched through naked eye.
When the derivatives were not dissolved completely, 50 μl of distilled water was added to the solution and then the turbidity of the solution was assayed in the above manner to find a point of becoming transparent solution.
When 2 mg of the derivatives was first added to distilled water and completely dissolved so that the solution became transparent, 2 mg of the derivatives was added more to the solution and then state of the solution was watched. The derivatives of the present invention were added to the five times and then solubility of the solution was assayed for. The assay for solubility was carried out the three times repeatedly in the above method and the results were averaged.

The test system of data set [2] is methicillin resistant Staphylococcus aureus (MRSA). The data set is described as follows: Assay for in vitro antibacterial activity, agar dilution (MRSA). The settings on record: read-out: Minimum Inhibitory Concentration (MIC50) MRSA.
In data set [3] the test system is vancomycin resistant Enterococci (VRE). The data set is described as follows: Assay for in vitro antibacterial activity, agar dilution (VRE). As to conditions: Enterococcus, read-out: Minimum Inhibitory Concentration (MIC50) VRE. (In general: In agar dilution the substance is mixed into plates at graded concentrations.)

As a reminder, the solubility is the dissolved amount per volume that the medium holds. A high value points to a readily soluble substance. What is called Solubility is how much of the substance goes into solution per volume. A lower Solubility goes with a poorly soluble substance.

For `Cc1nnc(-c2ccc(-c3ccc(N4C[C@H](CO)OC4=O)cc3F)cn2)o1` [Compound 16, (R)-3-(4-(2-(2-methyl-[1,3,4]oxadiazol-5-yl)pyridin-5-yl)-3-fluorophenyl)-5-hydroxymethyl oxazolidin-2-one], in the data set with ICR mice, the “Minimum Lethal Dose (MLD)” value was above 1000 mg/kg. The molecule also returned a solubility at 2 min in data set [1] of 20 µg/mL (≈ 54 µM). Moreover, the MIC50 in data set [2] amounted to 0.5 µg/mL (≈ 1.35 µM); in data set [3], 1 µg/mL (≈ 2.7 µM).
Consider `CC(C)[C@H](N)C(=O)OC[C@H]1CN(c2ccc(-c3ccc(-c4nnn(C)n4)nc3)c(F)c2)C(=O)O1` [Compound 20, (R)-3-(4-(2-(2-methyltetrazol-5-yl)pyridin-5-yl)-3-fluorophenyl)-5-(L-valyloxy)methyl oxazolidin-2-one trifluoroacetic acid], for which the “Minimum Lethal Dose (MLD)” value in the data set with ICR mice was above 1000 mg/kg. Further, the Solubility in data set [1] came to 4700 µg/mL (≈ 10000 µM).
Turning to `O=C1O[C@@H](CO)CN1c1ccc(-c2ccc(-n3cncn3)nc2)c(F)c1` [Compound 17, (R)-3-(4-(2-[1,2,4]triazol-1-ylpyridin-5-yl)-3-fluorophenyl)-5-hydroxymethyl oxazolidin-2-one], the “Minimum Lethal Dose (MLD)” value with ICR mice is on record as above 1000 mg/kg. Also, the MIC50 in data set [2] and in data set [3] was 1 µg/mL (≈ 2.81 µM) each time.
Take `Cn1nnc(-c2ccc(-c3ccc(N4C[C@H](CO)OC4=O)cc3F)cn2)n1` [Compound 10, (R)-3-(4-(2-(2-methyltetrazol-5-yl)pyridin-5-yl)-3-fluorophenyl)-5-hydroxymethyl oxazolidin-2-one]: the “Minimum Lethal Dose (MLD)” value in the data set on ICR mice is reported as above 1000 mg/kg. Moreover, the solubility at 2 min in data set [1] was found to be 10 µg/mL (≈ 27 µM). Moreover, the MIC50 in data set [2] turned out to be 0.5 µg/mL (≈ 1.35 µM); in data set [3] it was 0.25 µg/mL (≈ 0.675 µM).
As for `O=C1O[C@@H](CO)CN1c1ccc(-c2ccc(-n3ccnn3)nc2)c(F)c1` [Compound 24, (R)-3-(4-(2-([1,2,3]triazol-1-yl)pyridin-5-yl)-3-fluorophenyl)-5-hydroxymethyl oxazolidin-2-one], in the data set with ICR mice, the “Minimum Lethal Dose (MLD)” value is above 1000 mg/kg. Also, the MIC50 in data set [2] and in data set [3] was 0.5 µg/mL (≈ 1.41 µM) throughout.
`NCC(=O)OC[C@H]1CN(c2ccc(-c3ccc(-n4ccnn4)nc3)c(F)c2)C(=O)O1` [Compound 22, (R)-3-(4-(2-([1,2,3]triazol-1-yl)pyridin-5-yl)-3-fluorophenyl)-5-glycyloxymethyl oxazolidin-2-one trifluoroacetic acid]: the “Minimum Lethal Dose (MLD)” value with ICR mice was above 1000 mg/kg. In addition, the MIC50 in data set [2] and in data set [3] was 1 µg/mL (≈ 2.42 µM) each time.
Regarding `Cc1nnc(-c2ccc(-c3ccc(N4C[C@H](COC(=O)CN)OC4=O)cc3F)cn2)o1` [Compound 27, (R)-3-(4-(2-(2-methyl-[1,3,4]oxadiazole-5-yl)pyridin-5-yl)-3-fluorophenyl)-5-glycyloxymethyl oxazolidin-2-one trifluoroacetic acid], the “Minimum Lethal Dose (MLD)” value in the data set with ICR mice is above 1000 mg/kg. Further, the solubility at 2 min in data set [1] is above 50000 µg/mL.
As for `Cn1nnc(-c2ccc(-c3ccc(N4C[C@H](COC(=O)CN)OC4=O)cc3F)cn2)n1` [Compound 12, (R)-3-(4-(2-(2-methyltetrazol-5-yl)pyridin-5-yl)-3-fluorophenyl)-5-glycyloxymethyl oxazolidin-2-one trifluoroacetic acid], the “Minimum Lethal Dose (MLD)” value with ICR mice was above 1000 mg/kg. In data set [1], the Solubility came out at 28000 µg/mL (≈ 65500 µM).
For `Cc1nnc(-c2ccc(-c3ccc(N4C[C@H](COP(=O)([O][Na+])[O][Na+])OC4=O)cc3F)cn2)o1` [Compound 60, (R)-[3-(4-(2-(2-methyl-[1,3,4]oxadiazol-5-yl)pyridin-5-yl)-3-fluorophenyl)-2-oxo-5-oxazolidinyl]methyl disodiumphosphate], the solubility at 2 min in data set [1] was above 50000 µg/mL. Also, the MIC50 in data set [2] came to 0.5 µg/mL; in data set [3] it was 1 µg/mL.
For `Cl.Cn1nnc(-c2ccc(-c3ccc(N4C[C@H](COC(=O)CN)OC4=O)cc3F)cn2)n1` [Compound 45, (R)-3-(4-(2-(2-methyltetrazol-5-yl)pyridin-5-yl)-3-fluorophenyl)-5-glycyloxymethyl oxazolidin-2-one hydrochloride], in data set [1], the Solubility worked out at 12000 µg/mL. Also, the figures for the MIC50 in data set [2] and in data set [3] were 0.5 µg/mL and 0.25 µg/mL, respectively.
